From patent publication US12268690B2, “Treatments for mutations in acute myeloid leukemia” (OREGON HEALTH & SCIENCE UNIVERSITY, priority 2018, dated 2025) come the findings set out here.

For this assay, the system named is freshly isolated mononuclear cells from AML samples. The assay can be described thus: Ex vivo functional drug screen (MTS viability, AUC) on primary AML samples, compared by mutation or clinical group. The class given is cell-based, human. The text has this: This panel contained graded concentrations of a drugs with activity against two-thirds of the tyrosine kinome as well as other non-tyrosine kinase pathways, including MAPKs, PI3K/AKT/mTOR, AMPK, ATM, Aurora kinases, CAMKs, CDKs, GSK3a/b, IκK, PKA, PKC, PLK1, and RAF. In addition, the library contained small molecule inhibitors with activity against the BCL2 family, BRD4, Hedgehog, HSP90, NOTCH/gamma-secretase, proteasome, survivin, STAT3, and WNT/beta-catenin. Drug sensitivity patterns were analyzed with respect to clinical and genetic features of tumors. We compared the average area-under-the curve (AUC) values for each drug between the de novo and transformed samples via a series of single factor ANOVAs. […] In addition, we analyzed the concordance of drug sensitivity patterns with respect to predicted target gene, gene family, or pathway for each drug. […] To create a global view of overall sensitivity or resistance of each case, we generated a heatmap of binary sensitive/resistant calls for each sample to each drug.
Correlation of drug sensitivity with mutational events was performed by assessing the range of sensitivity of cases with mutation of an individual gene (as well as co-occurring mutational events) versus cases with wild type sequence for that same gene. […] The difference in average drug sensitivity of mutant versus wild type cases for each drug/mutation pair was plotted on the horizontal axis of a volcano plot with a test for statistical significance of the comparison plotted on the vertical axis (corrected for multiple comparison false discovery rate^42; FIG. 4). […] To aid in discovery of potential mutational biomarkers of drug sensitivity, we plotted volcano plots that were specific to each individual drug (versus all possible mutational events) and for each individual gene (versus all possible drugs tested).
Ex vivo drug screens were performed on freshly isolated mononuclear cells from AML samples as previously described^41.
Ex vivo functional drug screens were performed on freshly isolated mononuclear cells from AML samples. […] Drug plates were created using inhibitors purchased from LC Laboratories and Selleck Chemicals and master stocks were reconstituted in DMSO and stored at −80° C. […] DMSO control wells and positive control wells containing a drug combination of Flavopiridol, Staurosporine and Velcade were placed on each plate, with the final concentration of DMSO ≤0.1% in all wells. Daughter plates were created using a V&P Scientific 384-well pin tool head operated by the Caliper Sciclone ALH 3000 and equipped with 0.457 mm diameter, 30 nanoliter, slotted stainless steel pins (cat num: FP1NS30). Daughter and destination plates were sealed with pealable thermal seals using a PlateLoc thermal sealer. Destination plates were stored at −20° C. for no more than three months and thawed immediately before use. Primary mononuclear cells were plated across single-agent inhibitor panels within 24 h of collection. […] After 3 d of culture at 37° C. in 5% CO2, MTS reagent (CellTiter96 AQueous One; Promega) was added, optical density was measured at 490 nm, and raw absorbance values were adjusted to a reference blank value and then used to determine cell viability (normalized to untreated control wells).
A given sample was run on one or more panels and within each panel, the majority of drugs were run without within-panel replicates. […] An additional set of ‘curve-free’ AUCs was computed for sample-inhibitor pairs run on multiple panels.
Based on the methodology used in our prior drug combination study^36, a probit regression was fit to all possible run groups using the model: (normalized_viability/100)˜1+log 10(concentration) Where for all groups there were N=7 dose-response measurements. The summary measures of curve fit were inspected and cutoffs were devised removing all runs with an AIC >12 and deviance >2.

The structures appear in SMILES notation.

On to `O=c1ncn2nc(Sc3ccc(F)cc3F)ccc2c1-c1c(Cl)cccc1Cl` [vx-745], for which the “drug sensitivity mutant vs wild type (average difference in AUC; top left quadrant of volcano plot)” value (FLT3_ITD) is “vx-745”, the “drug sensitivity mutant vs wild type (average difference in AUC; top left quadrant of volcano plot)” value (FLT3_ITD:ASXL1) is given as “vx-745”, the “drug sensitivity mutant vs wild type (average difference in AUC; top left quadrant of volcano plot)” value (NPM1:IDH2) is on record as “vx-” and the “drug sensitivity mutant vs wild type (average difference in AUC; top left quadrant of volcano plot)” value (NPM1:SRSF2) is reported as “vx-745”.

In the case of `Nc1cccc2c1CN(C1CCC(=O)NC1=O)C2=O` (centres unmarked) [Lenalidomide], the “drug sensitivity mutant vs wild type (average difference in AUC; top left quadrant of volcano plot)” value by setting is: (NPM1) “Lenalidomide”; (NPM1:SRSF2) “lenalidomide”.

As for `NC(=O)c1cnc(N[C@@H]2CCCC[C@@H]2N)nc1Nc1cccc(-n2nccn2)c1` [PRT062607], the “drug sensitivity mutant vs wild type (average difference in AUC; top left quadrant of volcano plot)” value (NPM1:DNMT3A) is given as “PRT062607”.

For the compound `c1cn2cc(-c3ccc4cn[nH]c4c3)nc(Nc3ccc(N4CCOCC4)cc3)c2n1` [Entospletinib, 6-(1H-indazol-6-yl)-N-(4-morpholin-4-ylphenyl)imidazo[1,2-a]pyrazin-8-amine], the “drug sensitivity mutant vs wild type (average difference in AUC; top left quadrant of volcano plot)” value is, setting by setting: (DNMT3A) “Entospletinib”; (DNMT3A:IDH2) “Entospletinib (GS-9973)”; (IDH2) “Entospletinib”; (NPM1) “Entospletinib”; (NPM1:DNMT3A) “Entospletinib”; (NPM1:IDH1) “entospletinib”. Further, the “drug sensitivity mutant vs wild type (average difference in AUC; top left quadrant of volcano plot)” value (NPM1:IDH2) is on record as “entospetinib”, the “drug sensitivity mutant vs wild type (average difference in AUC; top left quadrant of volcano plot)” value (NPM1:SRSF2) is given as “entospetinib” and the “drug sensitivity mutant vs wild type (average difference in AUC; top left quadrant of volcano plot)” value (NPM1:TET2: DNMT3A) was “Entospetinib”. Besides, where the note is “cases with FLT3-ITD and NPM1”, the “pattern of drug sensitivity” value is “similarly significant pattern of sensitivity”.

On to `COc1cc2c(Oc3ccc4[nH]c(C)cc4c3F)ncnc2cc1OCCCN1CCCC1` [Cediranib], for which the “drug sensitivity mutant vs wild type (average difference in AUC; top left quadrant of volcano plot)” value (FLT3_ITD:RUNX1) is recorded as “cediranib”, the “drug sensitivity mutant vs wild type (average difference in AUC; top left quadrant of volcano plot)” value (RUNX1) is on record as “Cediranib” and the “drug sensitivity mutant vs wild type (average difference in AUC; top left quadrant of volcano plot)” value (U2AF1) is “Cediranib (AZD2171)”. In addition, under “mutation of RUNX1”, the “correlation of mutation with drug sensitivity” value was “correlated with sensitivity”.

With `CNC(=O)c1cc(Oc2ccc(NC(=O)Nc3ccc(Cl)c(C(F)(F)F)c3)c(F)c2)ccn1` [Regorafenib], the “drug sensitivity mutant vs wild type (average difference in AUC; top left quadrant of volcano plot)” value reads like this: (FLT3_ITD) “regorafenib”; (NPM1) “Regorafenib”; (NPM1:DNMT3A) “Regorafenib”; (NPM1:FLT3_ITD) “regorafenib”; (NPM1:FLT3_ITD:DNMT3A) “regorafenib”; (NPM1:IDH2) “regorafenib”. The “drug sensitivity mutant vs wild type (average difference in AUC; top left quadrant of volcano plot)” value reads like this: (NPM1:SRSF2) “regorafenib”; (NPM1:TET2: DNMT3A) “Regorafenib”.

As to `Clc1ccc(Nc2nnc(Cc3ccncc3)c3ccccc23)cc1` [Vatalanib], the “drug sensitivity mutant vs wild type (average difference in AUC; top left quadrant of volcano plot)” value is, setting by setting: (FLT3_ITD) “vatalanib”; (FLT3_ITD:ASXL1) “vatalanib”; (MLLT3.KMT2A) “Vatalanib”; (NPM1:FLT3_ITD) “vatalanib”; (SMC1A) “Vatalanib”.

As to `Cc1[nH]c(/C=C2\C(=O)Nc3ccc(S(=O)(=O)Cc4c(Cl)cccc4Cl)cc32)c(C)c1C(=O)N1CCC[C@@H]1CN1CCCC1` [PHA-665752], the “drug sensitivity mutant vs wild type (average difference in AUC; top left quadrant of volcano plot)” value (IDH2) is given as “PHA-665752”.

`CC[C@H](CO)Nc1nc(NCc2ccccc2)c2ncn(C(C)C)c2n1` [Roscovitine]: the “drug sensitivity mutant vs wild type (average difference in AUC; top left quadrant of volcano plot)” value is on record as “roscovitine” (FLT3_ITD), “roscovitine” (NPM1:IDH1) and “Roscovitine” (ZRSR2).

Take `NC1(c2ccc(-c3nc4ccn5c(=O)[nH]nc5c4cc3-c3ccccc3)cc2)CCC1` [MK-2206]: the “drug sensitivity mutant vs wild type (average difference in AUC; top left quadrant of volcano plot)” value (WT1) was “MK-2206”.

Regarding `CN(C)CC[C@H](CSc1ccccc1)Nc1ccc(S(=O)(=O)NC(=O)c2ccc(N3CCN(Cc4ccccc4-c4ccc(Cl)cc4)CC3)cc2)cc1[N+](=O)[O-]` [ABT-737], the “drug sensitivity mutant vs wild type (average difference in AUC; top left quadrant of volcano plot)” value (PML.RARA) was “ABT-737”.

In the case of `CN(NC(=O)CC(=O)NN(C)C(=S)c1ccccc1)C(=S)c1ccccc1` [elesclemol], the “drug sensitivity of mutant cases” value (TP53 mutant cases) was “trended more sensitive”.

As for `Cc1cc(Nc2cc(N3CCN(C)CC3)nc(Sc3ccc(NC(=O)C4CC4)cc3)n2)[nH]n1` [Tozasertib], the “drug sensitivity mutant vs wild type (average difference in AUC; top left quadrant of volcano plot)” value by setting is: (FLT3_ITD) “Tozasertib”; (FLT3_ITD:DNMT3A) “tozasertib”; (FLT3_ITD_IHD2) “tozasertib”; (IDH2) “Tozasertib”; (NPM1:FLT3_ITD:DNMT3A) “tozasertib”; (NPM1:SRSF2) “Tozasertib”.

Take `Nc1nc(Nc2ccc(S(N)(=O)=O)cc2)nn1C(=O)c1c(F)cccc1F` [JNJ-7706621, 4-((5-amino-1-(2,6-difluorobenzoyl)-1H-1,2,4-triazol-3-yl)amino)benzenesulfonamide]: the “drug sensitivity mutant vs wild type (average difference in AUC; top left quadrant of volcano plot)” value reads like this: (NPM1:DNMT3A) “JNJ-7706621”; (NPM1:IDH1) “JNJ-7706621”.

Regarding `CC1(C)CNc2cc(NC(=O)c3cccnc3NCc3ccncc3)ccc21` [motesanib], the “drug sensitivity mutant vs wild type (average difference in AUC; top left quadrant of volcano plot)” value (FLT3_ITD:RUNX1) is reported as “motesanib”.

`CC(C)n1nc(-c2ccc3oc(N)nc3c2)c2c(N)ncnc21` [INK-128]: the “drug sensitivity mutant vs wild type (average difference in AUC; top left quadrant of volcano plot)” value is, setting by setting: (FLT3_ITD) “INK-128”; (NPM1:FLT3_ITD) “ink-128”.

For the compound `O=C(NOCC1CC1)c1ccc(F)c(F)c1Nc1ccc(I)cc1Cl` [CI-1040], the “drug sensitivity mutant vs wild type (average difference in AUC; top left quadrant of volcano plot)” value reads like this: (DNMT3A:NRAS) “CI-1040 (PD184352)”; (NPM1:DNMT3A:NRAS) “CI-1040”; (NPM1:NRAS) “CI-1040 (PD184352)”; (NRAS) “CI-1040”.

For the compound `O=c1cc(-c2cccc3c2Sc2ccccc2S3)oc(N2CCOCC2)c1` [KU-55933], where the note is “ZRSR2”, the “drug sensitivity mutant vs wild type (average difference in AUC; top left quadrant of volcano plot)” value is listed as “KU-55933”.

Regarding `CCn1c(-c2nonc2N)nc2c(C#CC(C)(C)O)ncc(OC[C@H]3CCCNC3)c21` [GSK690693], the “drug sensitivity mutant vs wild type (average difference in AUC; top left quadrant of volcano plot)” value (MLLT3.KMT2A) is given as “GSK690693”.

For `CC1(COc2ccc3c(c2)ncn3-c2ccc3cccc(N4CCC(N)CC4)c3n2)COC1` [Crenolanib], the “drug sensitivity mutant vs wild type (average difference in AUC; top left quadrant of volcano plot)” value (CBFB.MYH11) was “Crenolanib”, the “drug sensitivity mutant vs wild type (average difference in AUC; top left quadrant of volcano plot)” value (DNMT3A:FLT3) was “Crenolanib”, the “drug sensitivity mutant vs wild type (average difference in AUC; top left quadrant of volcano plot)” value (NPM1) is recorded as “crenolanib” and the “drug sensitivity mutant vs wild type (average difference in AUC; top left quadrant of volcano plot)” value (NPM1:DNMT3A) is “Crenolanib”.
